The numbers were not newly measured in article PMC12715049 (Journal of Molecular Medicine (Berlin, Germany), 2025), which cites them from elsewhere.

Each structure is given as a SMILES string.

The subject of this data set is mHTT aggregates. The following applies: read-out: IC50, binding to mHTT aggregates; radio-binding assays.

Take `COc1ccc(COc2ccc3oc(-c4ccc(=O)n(C)n4)nc3c2)nc1` [CHDI-180R]: the IC50 was 1.3 ± 1 nM.

Broadly, the IC50 is the concentration that gives 50% inhibition.
